# Laboratory results published in US20050085420A1, “Method of modulating apoptosis and compositions thereof” (priority 2003, published 2005).
# T1: BAK (Mus musculus, UniProt O08734)
# T1 construct: endogenous in cells; host or cells: wt MEFs transduced with HA-VDAC2 retrovirus; mitochondria solubilized in 1% CHAPS or 0.2% NP-40
# T1 sequence (O08734 2-209 limits assumed): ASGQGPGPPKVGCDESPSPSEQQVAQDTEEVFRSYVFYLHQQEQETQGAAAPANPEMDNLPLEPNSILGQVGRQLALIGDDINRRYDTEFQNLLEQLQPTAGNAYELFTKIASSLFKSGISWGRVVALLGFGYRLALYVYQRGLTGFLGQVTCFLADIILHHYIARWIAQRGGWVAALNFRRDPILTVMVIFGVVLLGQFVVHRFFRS
# T1 sequence (Q60930 1-295 partner): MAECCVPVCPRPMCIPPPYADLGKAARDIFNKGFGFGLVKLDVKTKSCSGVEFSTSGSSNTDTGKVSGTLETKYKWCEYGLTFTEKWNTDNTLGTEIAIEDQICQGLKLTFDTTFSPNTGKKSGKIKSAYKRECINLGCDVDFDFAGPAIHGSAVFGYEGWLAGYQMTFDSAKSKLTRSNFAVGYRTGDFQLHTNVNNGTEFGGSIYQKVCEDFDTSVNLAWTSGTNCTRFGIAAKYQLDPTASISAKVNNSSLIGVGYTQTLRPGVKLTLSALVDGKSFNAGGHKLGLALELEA
# B1: HA-tagged VDAC2: N-terminal HA-tagged murine VDAC2, retrovirally expressed (protein)
# chain: T1 sequence (Q60930 1-295 partner)
# modifications: left off: small tags and cut ends
# notes: N-terminal HA-tagged murine VDAC2, retrovirally expressed
# B2: VDAC2: Voltage-Dependent Anion Channel-2, murine, retrovirally expressed (protein, UniProt Q60930 1-295, looked up)
# Non-selective voltage-gated …: T1 sequence (Q60930 1-295 partner)
# Experiments:
# vdac2 -/- MEF cell lines [1] = test: BAK oligomerization by gel filtration after staurosporine, vdac2 -/- cells; assay type: cell-based, mouse
# Experimental: (§1) FIG. 4F is a photograph depicting mitochondria isolated from wt or vdac2 -/- MEF cell lines with or without treatment with STS for 5 hours were solubilized in 2% CHAPS buffer. 200 μg of lysate was subjected to Superdex 200 (HR 10/30) gel filtration column chromatography. Fractions were analyzed by an immunoblot developed with anti-BAK antibody.
# (§2) The chromatographic step of Superdex 200 (HR 10/30, Amersham-Pharmacia) was performed on an automatic fast protein liquid chromatography (FPLC) station (Amersham-Pharmacia) at 4° C. […] Fractions of 0.6 ml were collected, precipitated by trichloroacetic acid, and analyzed by an immunoblot (fractions 16-31) developed with an anti-BAK Ab.
# (§3) In contrast, the response of wt- and vdac2-dificient cells was similar when the extrinsic death pathway was activated by TNFα (FIG. 4E). […] BAK already underwent oligomerization within 5 hours after staurosporine treatment in vdac2 -/- cells but not wt cells, as assessed by gel filtration (FIG. 4F) (X. Roucou, S. Montessuit, B. Antonsson, J. C. Martinou, Biochem J 368, 915-21. (2002)). […]
# vdac2 -/- MEF cell lines [2] = test: Cytochrome c release assay (subcellular fractionation, immunoblot), vdac2 -/- cells; assay type: cell-based, mouse; conditions: 1 μM staurosporine
# Experimental: (§4) FIG. 4C is a photograph depicting treatment of wt or vdac2 -/- MEF cell lines with 1 μM STS. The wt or vdac2 -/- MEF cell lines were subcellularly fractionated (see method) at indicated time points. Cytochrome c distribution in the cytosol versus mitochondria was assessed by immunoblot developed with an anti-cytochrome c antibody.
# (§5) MEF cell lines treated with 1 μM staurosporine were harvested at various time points and lysed for 5 min in isotonic buffer containing 10 mM KCl, 5 mM MgCl2, 1 mM EDTA, 1 mM EGTA, 250 mM sucrose, 20 mM Hepes, pH 7.2, 0.025% digitonin, and complete protease inhibitors (Roche). Organelles that contain mitochondria were removed from the soluble cytosolic fraction by pelleting at 15000 g. Supernatant and mitochondrial pellets were solubilized in SDS-PAGE loading buffer and analyzed by an immunoblot, developed with an anti-cytochrome c Ab. […]
# as §3
# wt MEF lines = test: Cytochrome c fluorescence microscopy after staurosporine, wt MEF line; assay type: cell-based, mouse; conditions: 1 μM STS, 4 hours
# Experimental: (§6) FIG. 4D is a photograph depicting two-color fluorescence microscopy of wt and vdac2 -/- MEF lines at 4 hours following 1 μM STS. Red indicates cytochrome c and blue is Hoechst staining of DNA.
# (§7) MEF cell lines treated with 1 μM staurosporine were harvested at various time points and lysed for 5 min in isotonic buffer containing 10 mM KCl, 5 mM MgCl2, 1 mM EDTA, 1 mM EGTA, 250 mM sucrose, 20 mM Hepes, pH 7.2, 0.025% digitonin, and complete protease inhibitors (Roche). Organelles that contain mitochondria were removed from the soluble cytosolic fraction by pelleting at 15000 g. Supernatant and mitochondrial pellets were solubilized in SDS-PAGE loading buffer and analyzed by an immunoblot, developed with an anti-cytochrome c Ab. Protein cross-linking, immunoblot, immunoprecipitation, isolation of mitochondria, cell viability assays, and anti-cytochrome c immunohistochemistry were described previously E. H. Cheng et al., Mol Cell 8, 705-11. (2001).
# wt MEF cell lines [3] = test: Cytochrome c release assay (subcellular fractionation, immunoblot), wt cells; assay type: cell-based, mouse; conditions: 1 μM staurosporine
# Experimental: as §4, §5, §3
# wt MEF cell lines [4] = test: BAK oligomerization by gel filtration after staurosporine, wt cells; assay type: cell-based, mouse
# Experimental: as §1, §2, §3
# vdac2 -/- MEF lines = test: Cytochrome c fluorescence microscopy after staurosporine, vdac2 -/- MEF line; assay type: cell-based, mouse; conditions: 1 μM STS, 4 hours
# Experimental: as §6, §7
# BAX = target: T2, BAX (Mus musculus, UniProt Q07813); test: Co-precipitation of endogenous BAX with HA-tagged VDAC2; assay type: binding; conditions: wt MEF mitochondria, CHAPS, anti-HA immunoprecipitation
# T2 construct: endogenous in cells; host or cells: wt MEFs transduced with HA-VDAC2 retrovirus; mitochondria solubilized in 1% CHAPS or 0.2% NP-40
# T2 sequence (Q07813 whole entry): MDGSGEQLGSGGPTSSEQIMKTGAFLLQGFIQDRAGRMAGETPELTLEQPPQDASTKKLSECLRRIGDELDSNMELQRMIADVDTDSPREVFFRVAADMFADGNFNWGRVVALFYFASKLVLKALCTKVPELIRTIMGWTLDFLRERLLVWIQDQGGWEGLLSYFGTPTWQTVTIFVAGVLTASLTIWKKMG
# Experimental: (§8) FIG. 2E is a photograph depicting mitochondria isolated from wt MEFs (upper panel) or Bax, Bak doubly deficient MEFs (lower panel), which were transduced with retrovirus expressing N-terminal HA-tagged VDAC2, BAK or BAX and were solubilized in either 1% CHAPS or 0.2% NP-40 buffer, followed by immunoprecipitation with an anti-HA antibody. The immunoprecipitates were analyzed by an immunoblot developed with anti-HA-Biotin, anti-BAK, anti-BAX, or anti-VDAC2 Abs as indicated.
# (§9) An HA-tagged BAK, but not HA-tagged BAX co-precipitated endogenous VDAC2 (FIG. 2E).
# BAK = target: T1, BAK; test: Co-precipitation of endogenous BAK with HA-tagged VDAC2; assay type: binding; conditions: wt MEF mitochondria, CHAPS, anti-HA immunoprecipitation
# Experimental: as §8, §9
# vdac2 -/- MEFs = test: Re-expression of VDAC2 in vdac2 -/- MEFs, Annexin-V cell death; assay type: cell-based, mouse; conditions: normal physiologic levels, 1.2 μM staurosporine 6 hr
# Experimental: FIG. 3E is a histogram depicting infection of primary vdac2 -/- MEFs with retrovirus expressing GFP (MIG vector control) or VDAC2-IRES-GFP. At 36 hours the GFP-positive cells isolated by MoFlo sorting were treated with 1.2 μM staurosporine for 6 hr. Cell death was quantitated by flow cytometric detection of Annexin-V staining. Values shown are mean ±1 SD of three independent experiments.
# Bax -/- MEFs = test: Annexin-V cell death after retroviral expression of VDAC1 or VDAC2 in Bax -/- MEFs; assay type: cell-based, mouse; conditions: Bax -/- cells
# Experimental: (§10) FIG. 3A are two graphs illustrating Bax -/- or Bak -/- MEFs at 2 days following retroviral expression of VDAC1, VDAC2, or GFP (MIG vector control), wherein the Bax -/- or Bak -/- MEFs were treated with 1.2 μM staurosporine (STS). Cell death was quantitated by flow cytometric detection of Annexin-V staining at indicated time points. Values shown are mean ±1 SD of three independent experiments.
# (§11) FIG. 3B is a histogram depicting Bax -/- or Bak -/- MEFs at 2 days following retroviral expression of VDAC2 or GFP (MIG vector control), wherein the Bax -/- or Bak -/- MEFs were infected with tBID-expressing retrovirus. Cell death was quantitated by flow cytometric detection of Annexin-V staining at 24 hr. Values shown are mean ±1 SD of three independent experiments.
# as §10, with “6” for “3A”, “that depict” for “illustrating”, “10 μg/ml etoposide.” for “1.2 μM staurosporine (STS).”
# (§12) Previous studies have shown that cells doubly deficient for BAX and BAK are resistant to intrinsic death stimuli, whereas cells singly deficient for BAX or BAK are still susceptible (M. C. Wei et al., Science 292, 727-30. (2001)). As VDAC2 interacts with BAK but not BAX, the ability of VDAC2 to modulate apoptosis mediated by BAK or BAX was tested. According to one hypothesis, VDAC2 might function as an inhibitor of BAK or VDAC2 itself might function as a proapoptotic factor once released from BAK. To address these alternatives VDAC 1 or VDAC2 was expressed in Bax -/- or Bak -/- singly deficient mouse embryonic fibroblasts (MEFs) followed by treatment with staurosporine or etoposide. […] Expression of VDAC2 inhibited tBID-induced apoptosis of Bax -/- cells but not Bak -/- cells, further supporting a selective role for VDAC2 in negatively regulating BAK-dependent apoptosis (FIG. 3B).
# Bak -/- MEFs = test: Annexin-V cell death after retroviral expression of VDAC1 or VDAC2 in Bak -/- MEFs; assay type: cell-based, mouse; conditions: Bak -/- cells
# Experimental: as §10, §11
# as §10, with “6” for “3A”, “that depict” for “illustrating”, “10 μg/ml etoposide.” for “1.2 μM staurosporine (STS).”
# as §12
# [5] = retroviral expression, 1.2 μM staurosporine or 10 μg/ml etoposide, Annexin-V
# [6] = tBID-expressing retrovirus, Annexin-V at 24 hr
molecule,measurement,setting,value
CN[C@@H]1C[C@H]2O[C@@](C)([C@@H]1OC)n1c3ccccc3c3c4c(c5c6ccccc6n2c5c31)C(=O)NC4 [staurosporine],time to BAK oligomerization,vdac2 -/- MEF cell lines [1],≤ 5 h
same,time of complete release of cytochrome c,vdac2 -/- MEF cell lines [2],≤ 5 h
same,time of partial release of cytochrome c into the cytosol,vdac2 -/- MEF cell lines [2],≤ 3 h
same,cells with diffuse cytosolic staining for cytochrome c,wt MEF lines,16%
same,release of cytochrome c at 3 and 5 hours,wt MEF cell lines [3],had not initiated any release of cytochrome c
same,time to BAK oligomerization,wt MEF cell lines [4],~10 h
same,cells with diffuse cytosolic staining for cytochrome c,vdac2 -/- MEF lines,83%
B1,co-precipitation of endogenous BAX,BAX,not
same,co-precipitation of endogenous BAK,BAK,efficiently co-precipitated
B2,susceptibility to apoptosis after re-expression,vdac2 -/- MEFs,reversed the increased susceptibility to apoptosis
same,apoptosis after staurosporine or etoposide,Bax -/- MEFs; [5],significantly inhibited apoptosis
same,tBID-induced apoptosis,Bax -/- MEFs; [6],inhibited
same,apoptosis after staurosporine or etoposide,Bak -/- MEFs; [5],no effect
same,tBID-induced apoptosis,Bak -/- MEFs; [6],not
